The Ki is a measure of affinity in units of concentration, obtained from inhibition or displacement.

Test [1] addresses T1, 5-HT2AR (Homo sapiens, UniProt P28223). The experiment in a line: Radioligand binding assay at human 5-HT2AR ([125I]DOI, HEK cells). The arrangement: expressed in transfected cells; host or cells: HEK (HEK-h5HT2A). As to conditions: HEK cells expressing h5-HT2AR, read-out: Ki ± SEM, 5-HT2AR. On the procedure:
(§1) Human embryonic kidney cells expressing human 5HT2AR (HEK-h5HT2A) or human 5HT2CR (HEK-h5HT2C) are used. The cells are grown until confluent on 15 cm plates. The medium is removed, and the cells are washed with phosphate-buffered saline (PBS), scraped into 2 mL PBS, and frozen at −20 °C until needed. Cell suspension is thawed, 10 mL assay buffer (50 mM Tris, pH 7.4 at 37 °C, with 0.1% ascorbic acid and 5 mM CaCl2) is added per plate of cells, and polytronned at setting 6 for 5 s. The homogenate is centrifuged at 15,500 rpm for 20 min. To minimize the residual 5HT concentration, the pellet is resuspended in buffer, polytronned, and centrifuged as mentioned above. The final pellet is resuspended in 2 mL buffer/plate of cells. The binding assay includes 50 μL drug, 5-HT or buffer, 50 μL cell homogenate, 50 μL [^125I]DOI (∼0.1 nM), and buffer in a final volume of 250 μL. Specific binding is defined as the difference between total binding and binding in the presence of 10 μM 5HT. The reaction is incubated for 1 h at 37 °C and terminated by filtration through Wallac A filter mats presoaked in 0.05% polyethylenimine using a Tomtec 96-well harvester. The radioactivity remaining on filters is determined using a Wallac betaplate reader.

A further test has as its target T2, 5-HT2CR (Homo sapiens, UniProt P28335).
T2 sequence (P28335 33-458): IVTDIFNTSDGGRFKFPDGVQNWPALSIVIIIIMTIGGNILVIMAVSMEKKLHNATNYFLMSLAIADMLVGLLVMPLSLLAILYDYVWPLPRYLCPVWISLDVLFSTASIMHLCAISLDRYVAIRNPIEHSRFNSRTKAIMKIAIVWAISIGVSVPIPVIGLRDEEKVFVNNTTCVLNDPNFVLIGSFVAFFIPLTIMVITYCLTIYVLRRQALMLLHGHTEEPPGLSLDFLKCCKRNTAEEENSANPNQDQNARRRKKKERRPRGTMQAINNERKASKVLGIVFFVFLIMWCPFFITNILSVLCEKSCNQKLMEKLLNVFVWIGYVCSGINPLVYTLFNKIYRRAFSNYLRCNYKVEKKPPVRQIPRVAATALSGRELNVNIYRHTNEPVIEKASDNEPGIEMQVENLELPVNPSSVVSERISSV
Nature of the test: Radioligand binding assay at human 5-HT2CR ([125I]DOI, HEK cells). On the set-up: expressed in transfected cells; host or cells: HEK (HEK-h5HT2C). As to conditions: HEK cells expressing h5-HT2CR, read-out: Ki ± SEM, 5-HT2CR. On the procedure:
as §1

The target of the next test is D2R (Homo sapiens, UniProt P14416). The experiment in a line: Radioligand competition binding at human D2R ([3H]N-methylspiperone, HEK293 membranes). On the set-up: expressed in transfected cells; host or cells: HEK293. Particulars: HEK 293 cells expressing hD2R, read-out: Ki ± SEM, D2R. On the procedure:
The novel hybrid derivatives 3–11 were tested at hD2R, hD3R, or hD4R stably expressed in HEK293 cells by competition binding assays, using [^3H]N-methylspiperone as the radioligand, to evaluate their D2-like affinity and subtype selectivity, following the previously reported procedures.[41],[45],[46]
Binding at dopamine D2-like receptors was determined using previously described methods.[41],[45],[46] Membranes were prepared from HEK293 cells stably expressing human D2, D3, or D4, grown in a 50:50 mix of Dulbecco’s minimal essential medium (DMEM) and Ham’s F12 culture media, supplemented with 20 mM HEPES, 2 mM L-glutamine, 0.1 mM nonessential amino acids, 1× antibiotic/antimycotic, 10% heat-inactivated fetal bovine serum, and 200 μg/mL hygromycin (Life Technologies, Grand Island, NY) and kept in an incubator at 37 °C and 5% CO2. Upon reaching 80–90% confluency, the cells were harvested using premixed Earle’s Balanced Salt Solution (EBSS) with 5 μM EDTA (Life Technologies) and centrifuged at 3000 rpm for 10 min at 21 °C. The supernatant was removed, and the pellet was resuspended in 10 mL hypotonic lysis buffer (5 mM MgCl2, 5 mM Tris, pH 7.4 at 4 °C) and centrifuged at 20,000 rpm for 30 min at 4 °C. The pellet was then resuspended in fresh EBSS buffer made from 8.7 g/L Earle’s Balanced Salts without phenol red (US Biological, Salem, MA), 2.2 g/L sodium bicarbonate, pH to 7.4. A Bradford protein assay (Bio-Rad, Hercules, CA) was used to determine the protein concentration, and membranes were diluted to 500 μg/mL and stored at −80 °C for later use. Radioligand competition binding experiments were conducted using thawed membranes. Test compounds were freshly dissolved in 30% DMSO and 70% H2O to a stock concentration of 100 μM. To assist the solubilization of free-base compounds, 10 μL of glacial acetic acid was added along with DMSO. Each test compound was then diluted into 13 half-log serial dilutions using 30% DMSO vehicle; the final test concentrations ranged from 10 μM to 10 pM. The previously frozen membranes were diluted in fresh EBSS to a 100 μg/mL (for D2 or D3) or 200 μg/mL (D4) stock for binding. Radioligand competition experiments were conducted in glass tubes containing 300 μL of fresh EBSS buffer, 50 μL of diluted test compound, 100 μL of membranes (10 μg of total protein for D2 or D3 and 20 μg of total protein for D4), and 50 μL of [^3H]N-methylspiperone (0.4 nM final concentration; PerkinElmer). Nonspecific binding was determined using 10 μM butaclamol (Sigma-Aldrich, St. Louis, MO), and total binding was determined with the 30% DMSO vehicle. All compound dilutions were tested in triplicate and the reaction was incubated for 1 h at room temperature. The reaction was terminated by filtration through Whatman GF/B filters, presoaked for 1 h in 0.5% polyethylenimine, using a Brandel R48 filtering manifold (Brandel Instruments, Gaithersburg, MD). The filters were washed three times with 3 mL of ice-cold EBSS buffer and transferred to scintillation vials. CytoScint liquid scintillation cocktail (3 mL, MP Biomedicals, Solon, OH) was added, and vials were counted using a PerkinElmer Tri-Carb 2910 TR liquid scintillation counter (Waltham, MA).
For orientation: In a radioligand displacement assay an active substance lowers the binding of a labelled ligand.

Test [2] deals with T1, 5-HT2AR. Nature of the test: 5-HT2A IP-1 formation (HEK-h5HT2A cells). As to conditions: for % inhib., 5-HT2A IP-1 formation: antagonist mode, normalized to the inhibition by 10 μM ketanserin; for functional behavior at 5-HT2AR: in words.
Procedure: HEK-h5HT2A or HEK-h5HT2C cells are used as the tissue source. The day before the experiment, cells are plated in 24-well plates at a density of 400,000 cells per well using DMEM supplemented with charcoal-stripped FetalClone. Drugs are made up in stimulation buffer supplied in the kit. Medium is removed from the well, test compounds or serotonin or antagonist or buffer is added, and the cells are incubated for 1 h. The cells are lysed for 30 min, and 50 μL of cell lysate is added to the IP-1 plates. After the addition of appropriate antibodies, the plates are incubated for 3 h, washed six times, incubated with the substrate for 20 min, and, after termination of the reaction, the plate is read on a plate reader at 450 nm with a correction at 620 nm.

Sequence of D2R (P14416 whole entry): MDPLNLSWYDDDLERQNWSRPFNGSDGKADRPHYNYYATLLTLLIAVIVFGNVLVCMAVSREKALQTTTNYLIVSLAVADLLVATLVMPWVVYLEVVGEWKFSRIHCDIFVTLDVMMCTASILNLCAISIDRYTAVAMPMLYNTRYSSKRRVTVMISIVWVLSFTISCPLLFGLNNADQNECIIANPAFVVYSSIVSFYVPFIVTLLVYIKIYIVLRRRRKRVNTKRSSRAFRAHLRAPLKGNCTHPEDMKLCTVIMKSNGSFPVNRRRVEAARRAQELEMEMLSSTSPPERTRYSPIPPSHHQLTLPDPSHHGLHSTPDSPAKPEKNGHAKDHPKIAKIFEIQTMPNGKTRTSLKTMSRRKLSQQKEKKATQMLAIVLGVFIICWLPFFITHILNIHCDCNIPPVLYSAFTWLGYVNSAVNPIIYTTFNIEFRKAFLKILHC
T1 sequence (P28223 whole entry): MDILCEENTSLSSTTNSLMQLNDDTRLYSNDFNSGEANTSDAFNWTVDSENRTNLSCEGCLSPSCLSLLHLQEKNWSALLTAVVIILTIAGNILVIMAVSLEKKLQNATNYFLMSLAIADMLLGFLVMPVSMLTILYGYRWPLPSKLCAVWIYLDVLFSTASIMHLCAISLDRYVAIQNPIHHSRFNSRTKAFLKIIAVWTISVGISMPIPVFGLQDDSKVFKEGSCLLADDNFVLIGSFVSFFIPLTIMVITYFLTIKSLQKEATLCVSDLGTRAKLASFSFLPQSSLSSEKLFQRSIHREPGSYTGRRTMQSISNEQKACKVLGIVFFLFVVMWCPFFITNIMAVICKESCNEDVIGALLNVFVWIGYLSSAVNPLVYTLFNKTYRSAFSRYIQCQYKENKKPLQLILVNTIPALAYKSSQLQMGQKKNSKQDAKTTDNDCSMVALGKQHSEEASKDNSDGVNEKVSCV

For `O=C(NCCCCN1CCN(c2cccc(Cl)c2Cl)CC1)C1COC(c2ccccc2)(c2ccccc2)CO1` (centres unmarked) [compound 6, N-(4-(4-(2,3-Dichlorophenyl)piperazin-1-yl)butyl)-5,5-diphenyl-1,4-dioxane-2-carboxamide], the Ki on 5-HT2AR [1] was found to be 0.028 ± 0.006 µM; on 5-HT2CR, 0.09 ± 0.016 µM; at D2R, 0.0287 ± 0.0054 µM. For the same compound, the “% inhib., 5-HT2A IP-1 formation” value on 5-HT2AR [2] is listed as “(88.6) %”. Also, the “functional behavior at 5-HT2AR” value at 5-HT2AR [2] was “efficacious D2R and 5-HT2AR antagonists with high and low potency, respectively”.

Take `O=C(NCCCCN1CCN(c2cccc(Cl)c2Cl)CC1)C1COCC(c2ccccc2)(c2ccccc2)O1` (centres unmarked) [compound 3, N-(4-(4-(2,3-Dichlorophenyl)piperazin-1-yl)butyl)-6,6-diphenyl-1,4-dioxane-2-carboxamide]: the values for the Ki on 5-HT2AR [1], at 5-HT2CR and on D2R were 0.257 ± 0.038 µM, 0.642 ± 0.08 µM and 0.342 ± 0.105 µM, respectively. On 5-HT2AR [2], the “% inhib., 5-HT2A IP-1 formation” value is listed as “(45.4) %”.

`O=C(NCCCCN1CCN(c2cccc(Cl)c2Cl)CC1)C1COc2ccccc2O1` (centres unmarked) [compound 9, N-(4-(4-(2,3-Dichlorophenyl)piperazin-1-yl)butyl)-2,3-dihydrobenzo[b][1,4]dioxine-2-carboxamide]: the figures for the Ki at 5-HT2AR [1], on 5-HT2CR and on D2R were 0.062 ± 0.015 µM, 0.097 ± 0.025 µM and 0.0464 ± 0.0059 µM, respectively. On 5-HT2AR [2], the “% inhib., 5-HT2A IP-1 formation” value is reported as “(86.8) %”. At 5-HT2AR [2], the “functional behavior at 5-HT2AR” value was “efficacious D2R and 5-HT2AR antagonists with high and low potency, respectively”.

Source of the values: publication PMC8498988, “Scaffold Hybridization Strategy Leads to the Discovery of Dopamine D3 Receptor-Selective or Multitarget Bitopic Ligands Potentially Useful for Central Nervous System Disorders” (ACS Chemical Neuroscience, 2021).
